Results taken from ChEMBL document CHEMBL4420076, “Amylin and calcitonin receptor agonist” (2017).
Numbered stars: 1 amine (or outer) side, 2 acyl side, 3 side chain; on linkers, the order of the positions; unused ones are H or OH. Side chains are listed from the residue outwards. Peptide text beside a SMILES is read from it. * marks the point of attachment. C20 diacid = O=C(O)CCCCCCCCCCCCCCCCCCC(=O)*; γGlu = O=C(O)[C@H](CCC(=O)[*:2])N[*:1]; AEEA = NCCOCCOCC(=O)O

How the values were obtained:
Calcitonin receptor [1] = target: T1, Calcitonin receptor (Homo sapiens, UniProt P30988); assay: Agonist activity at human calcitonin receptor expressed in BHK570 cells assessed as increase in intracellular cAMP concentration incubated for 3 hrs in absence of albumin by CRE luciferase reporter gene assay; assay type: functional, cell-based
T1 sequence (P30988 whole entry): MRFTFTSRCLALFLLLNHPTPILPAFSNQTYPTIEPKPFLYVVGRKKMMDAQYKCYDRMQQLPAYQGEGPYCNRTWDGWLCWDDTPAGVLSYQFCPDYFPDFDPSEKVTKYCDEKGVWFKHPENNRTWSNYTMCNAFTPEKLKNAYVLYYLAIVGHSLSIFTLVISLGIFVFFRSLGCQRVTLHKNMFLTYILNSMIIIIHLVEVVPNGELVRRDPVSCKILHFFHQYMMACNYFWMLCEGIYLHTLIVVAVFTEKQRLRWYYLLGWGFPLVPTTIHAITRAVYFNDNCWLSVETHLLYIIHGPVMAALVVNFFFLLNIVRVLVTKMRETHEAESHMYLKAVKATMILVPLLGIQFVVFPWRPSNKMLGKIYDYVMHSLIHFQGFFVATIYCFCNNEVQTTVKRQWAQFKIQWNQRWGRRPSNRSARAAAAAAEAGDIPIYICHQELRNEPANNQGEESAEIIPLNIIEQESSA

[2] = target: T2, Amylin receptor AMY3; CALCR/RAMP3 (Homo sapiens, UniProt O60896+P30988); assay: Agonist activity at human amylin receptor expressed in BHK570 cells co-expressing RAMP3 assessed as increase in intracellular cAMP concentration incubated for 3 hrs in presence of 10% FBS by CRE luciferase reporter gene assay; assay type: functional, cell-based
T2 sequence (P30988 whole entry): T1 sequence (P30988 whole entry)
T2 sequence (O60896 whole entry): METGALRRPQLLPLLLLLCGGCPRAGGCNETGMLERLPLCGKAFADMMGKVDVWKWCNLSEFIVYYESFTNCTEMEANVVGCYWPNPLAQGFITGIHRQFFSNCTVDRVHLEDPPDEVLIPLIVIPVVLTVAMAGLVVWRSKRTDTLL

Calcitonin receptor [3] = target: T1, Calcitonin receptor; assay: Agonist activity at human calcitonin receptor expressed in BHK570 cells assessed as increase in intracellular cAMP concentration incubated for 3 hrs in presence of 10% FBS by CRE luciferase reporter gene assay; assay type: functional, cell-based
[4] = Stability in pH 7.5 buffer assessed as lag time for fibril formation at 1 uM by Thioflavin T based fluorescence assay; assay type: physicochemical; details: pH 7.5, 1 µM
[5] = Stability in pH 7.5 buffer assessed as compound recovery at 1 uM by Thioflavin T based fluorescence assay; assay type: physicochemical; details: read-out: Drug recovery
[6] = Solubility in 100 mM glycylglycine buffer at pH 3.0 incubated for 18 hrs by UPLC analysis; assay type: physicochemical
[7] = Solubility in 100 mM glycylglycine buffer at pH 4.0 incubated for 18 hrs by UPLC analysis; assay type: physicochemical
[8] = Solubility in 100 mM bistrispropane buffer at pH 6.0 incubated for 18 hrs by UPLC analysis; assay type: physicochemical
[9] = Solubility in 100 mM glycylglycine buffer at pH 5.0 incubated for 18 hrs by UPLC analysis; assay type: physicochemical
[10] = Solubility in 100 mM bistrispropane buffer at pH 6.5 incubated for 18 hrs by UPLC analysis; assay type: physicochemical
[11] = Solubility in 100 mM bistrispropane buffer at pH 7.0 incubated for 18 hrs by UPLC analysis; assay type: physicochemical
[12] = Solubility in 100 mM bistrispropane buffer at pH 7.5 incubated for 18 hrs by UPLC analysis; assay type: physicochemical
[13] = Solubility in 100 mM bistrispropane buffer at pH 8.0 incubated for 18 hrs by UPLC analysis; assay type: physicochemical
Calcitonin receptor [14] = target: T1, Calcitonin receptor; assay: Displacement of [125I]-labeled human calcitonin from human calcitonin receptor expressed in BHK tkts13 cell membranes incubated for 1 hr by scintillation proximity assay
[15] = target: T3, Amylin receptor AMY3; CALCR/RAMP3 (Rattus norvegicus, UniProt P32214+Q9JJ73); assay: Displacement of [125I]-labeled rat amylin from rat amylin receptor expressed in BHK tkts13 cell membranes co-expressing RAMP3 incubated for 120 mins by scintillation proximity assay
T3 sequence (P32214 whole entry): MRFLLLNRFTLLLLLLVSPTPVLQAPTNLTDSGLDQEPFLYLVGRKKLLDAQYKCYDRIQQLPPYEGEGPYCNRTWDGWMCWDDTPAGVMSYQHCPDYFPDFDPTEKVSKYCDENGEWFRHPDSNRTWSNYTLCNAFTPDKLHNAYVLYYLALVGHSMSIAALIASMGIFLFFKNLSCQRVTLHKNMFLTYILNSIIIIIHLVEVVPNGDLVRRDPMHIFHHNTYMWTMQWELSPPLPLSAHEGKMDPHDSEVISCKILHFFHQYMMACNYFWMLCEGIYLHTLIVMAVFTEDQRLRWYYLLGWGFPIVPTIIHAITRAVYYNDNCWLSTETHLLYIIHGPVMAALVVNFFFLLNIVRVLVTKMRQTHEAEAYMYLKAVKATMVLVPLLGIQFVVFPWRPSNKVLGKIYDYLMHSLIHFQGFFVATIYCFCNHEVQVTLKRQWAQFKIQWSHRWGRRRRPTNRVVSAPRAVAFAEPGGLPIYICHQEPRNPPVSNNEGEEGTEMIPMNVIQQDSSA
T3 sequence (Q9JJ73 whole entry): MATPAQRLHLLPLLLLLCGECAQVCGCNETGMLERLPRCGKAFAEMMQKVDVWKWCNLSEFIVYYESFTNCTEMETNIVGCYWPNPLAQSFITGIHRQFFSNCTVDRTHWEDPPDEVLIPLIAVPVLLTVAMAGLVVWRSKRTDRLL

[16] = target: T2, Amylin receptor AMY3; CALCR/RAMP3; assay: Agonist activity at human amylin receptor expressed in BHK570 cells co-expressing RAMP3 assessed as increase in intracellular cAMP concentration incubated for 3 hrs in absence of albumin by CRE luciferase reporter gene assay; assay type: functional, cell-based
Rattus norvegicus [17] = assay: Reduction in food intake in Sprague-Dawley rat at 3 nmol/kg measured 0 to 24 hrs post dose relative to control; assay type: functional; parameters: scale not given: the % may be the effect or the level left
Rattus norvegicus [18] = assay: Reduction in food intake in Sprague-Dawley rat at 3 nmol/kg measured 24 to 48 hrs post dose relative to control; assay type: functional; parameters: scale not given: the % may be the effect or the level left
[19] = target: T2, Amylin receptor AMY3; CALCR/RAMP3; assay: Displacement of [125I]-labeled rat amylin from human amylin receptor expressed in BHK570 cell membranes co-expressing RAMP3 incubated for 120 mins by scintillation proximity assay

| EC50 (Calcitonin receptor [1]) [nM] | EC50 [2] [nM] | EC50 (Calcitonin receptor [3]) [nM] | Time [4] [h] | remaining at 1 µM [5] [%] | solubility at 18 h [6] [µM] | solubility at 18 h [7] [µM] | solubility at 18 h [8] [µM] | solubility at 18 h [9] [µM] | solubility at 18 h [10] [µM] | solubility at 18 h [11] [µM] | solubility at 18 h [12] [µM] | solubility at 18 h [13] [µM] | IC50 (Calcitonin receptor [14]) [nM] | IC50 [15] [nM] | EC50 [16] [nM] | IC50 [19] [nM] | SMILES | Activity (Rattus norvegicus [17]) [%] | Activity (Rattus norvegicus [18]) [%] |
| --- | --- | --- | --- | --- | --- | --- | --- | --- | --- | --- | --- | --- | --- | --- | --- | --- | --- | --- | --- |
| 0.019 | 0.049 | 0.028 | > 45 | 100 | ≥ 200 | ≥ 200 | ≥ 200 | ≥ 200 | ≥ 200 | ≥ 200 | ≥ 200 | ≥ 200 | 0.085 | 0.455 | – | – | CC(C)C[C@H](NC(=O)[C@H](C)NC(=O)[C@H](C)NC(=O)[C@@H](NC(=O)[C@H](CO)NC(=O)[C@H](CC(C)C)NC(=O)[C@H](CCC(=O)O)NC(=O)[C@H](CO)NC(=O)[C@H](C)N)[C@@H](C)O)C(=O)NCC(=O)N[C@@H](CCCNC(=N)N)C(=O)N[C@@H](CC(C)C)C(=O)N[C@@H](CO)C(=O)N[C@@H](C)C(=O)N[C@@H](CCC(=O)O)C(=O)N[C@@H](CC(C)C)C(=O)N[C@@H](Cc1cnc[nH]1)C(=O)N[C@@H](CCCCNC(=O)CC[C@H](NC(=O)CCCCCCCCCCCCCCCCCCC(=O)O)C(=O)O)C(=O)N[C@@H](CC(C)C)C(=O)N[C@@H](C)C(=O)N[C@H](C(=O)N[C@@H](CC(C)C)C(=O)N1CCC[C@H]1C(=O)N[C@@H](CCCNC(=N)N)C(=O)N[C@H](C(=O)N[C@@H](CCC(=O)O)C(=O)N[C@H](C(=O)NCC(=O)N[C@@H](CO)C(=O)NCC(=O)N[C@@H](CO)C(=O)N1CCC[C@H]1C(N)=O)[C@@H](C)O)[C@@H](C)O)[C@@H](C)O (H-ASELSTAALGRLSAELHK([γGlu-C20 diacid])LATLPRTETGSGSP-NH2) | – | – |
| 0.018 | 0.073 | 0.03 | > 45 | 100 | ≥ 200 | ≥ 200 | ≥ 200 | ≥ 200 | ≥ 200 | ≥ 200 | ≥ 200 | ≥ 200 | 0.085 | 0.146 | 0.027 | – | CC(C)C[C@H](NC(=O)[C@H](C)NC(=O)[C@H](C)NC(=O)[C@@H](NC(=O)[C@H](CO)NC(=O)[C@H](CC(C)C)NC(=O)[C@H](CCC(=O)O)NC(=O)[C@H](CO)NC(=O)[C@H](C)NC(=O)COCCOCCNC(=O)CC[C@H](NC(=O)CCCCCCCCCCCCCCCCCCC(=O)O)C(=O)O)[C@@H](C)O)C(=O)NCC(=O)N[C@@H](CCCNC(=N)N)C(=O)N[C@@H](CC(C)C)C(=O)N[C@@H](CO)C(=O)N[C@@H](C)C(=O)N[C@@H](CCC(=O)O)C(=O)N[C@@H](CC(C)C)C(=O)N[C@@H](Cc1cnc[nH]1)C(=O)N[C@@H](CCC(=O)O)C(=O)N[C@@H](CC(C)C)C(=O)N[C@@H](C)C(=O)N[C@H](C(=O)N[C@@H](CC(C)C)C(=O)N1CCC[C@H]1C(=O)N[C@@H](CCCNC(=N)N)C(=O)N[C@H](C(=O)N[C@@H](CCC(=O)O)C(=O)N[C@H](C(=O)NCC(=O)N[C@@H](CO)C(=O)NCC(=O)N[C@@H](CO)C(=O)N1CCC[C@H]1C(N)=O)[C@@H](C)O)[C@@H](C)O)[C@@H](C)O ({C20 diacid-γGlu-AEEA}-ASELSTAALGRLSAELHELATLPRTETGSGSP-NH2) | – | – |
| 0.037 | 0.062 | 0.049 | > 45 | 100 | ≥ 200 | ≥ 200 | ≥ 200 | – | ≥ 200 | ≥ 200 | ≥ 200 | ≥ 200 | 0.113 | 0.029 | 0.046 | – | CC(C)C[C@H](NC(=O)[C@H](C)NC(=O)[C@H](C)NC(=O)[C@@H](NC(=O)[C@H](CO)NC(=O)[C@H](CC(C)C)NC(=O)[C@H](CCC(=O)O)NC(=O)[C@H](CO)NC(=O)[C@H](C)NC(=O)CC[C@H](NC(=O)CCCCCCCCCCCCCCCCCCC(=O)O)C(=O)O)[C@@H](C)O)C(=O)NCC(=O)N[C@@H](CCCNC(=N)N)C(=O)N[C@@H](CC(C)C)C(=O)N[C@@H](CO)C(=O)N[C@@H](C)C(=O)N[C@@H](CCC(=O)O)C(=O)N[C@@H](CC(C)C)C(=O)N[C@@H](Cc1cnc[nH]1)C(=O)N[C@@H](CCC(=O)O)C(=O)N[C@@H](CC(C)C)C(=O)N[C@@H](C)C(=O)N[C@H](C(=O)N[C@@H](CC(C)C)C(=O)N1CCC[C@H]1C(=O)N[C@@H](CCCNC(=N)N)C(=O)N[C@H](C(=O)N[C@@H](CCC(=O)O)C(=O)N[C@H](C(=O)NCC(=O)N[C@@H](CO)C(=O)NCC(=O)N[C@@H](CO)C(=O)N[C@@H](Cc1ccc(O)cc1)C(N)=O)[C@@H](C)O)[C@@H](C)O)[C@@H](C)O ({C20 diacid-γGlu}-ASELSTAALGRLSAELHELATLPRTETGSGSY-NH2) | – | – |
| 0.023 | 0.092 | 0.04 | – | – | ≥ 200 | ≥ 200 | ≥ 200 | – | ≥ 200 | ≥ 200 | ≥ 200 | ≥ 200 | – | 0.045 | 0.02 | 0.159 | CC(C)C[C@H](NC(=O)[C@H](CCCNC(=N)N)NC(=O)CNC(=O)[C@H](CC(C)C)NC(=O)[C@@H](NC(=O)[C@H](C)NC(=O)[C@@H](NC(=O)[C@H](CO)NC(=O)[C@H](CC(C)C)NC(=O)[C@H](CCC(=O)O)NC(=O)[C@H](CO)NC(=O)[C@H](C)NC(=O)CC[C@H](NC(=O)CCCCCCCCCCCCCCCCCCC(=O)O)C(=O)O)[C@@H](C)O)[C@@H](C)O)C(=O)N[C@@H](CO)C(=O)N[C@@H](C)C(=O)N[C@@H](CCC(=O)O)C(=O)N[C@@H](CC(C)C)C(=O)N[C@@H](Cc1cnc[nH]1)C(=O)N[C@@H](CCC(=O)O)C(=O)N[C@@H](CC(C)C)C(=O)N[C@@H](CO)C(=O)N[C@H](C(=O)N[C@@H](Cc1ccc(O)cc1)C(=O)N1CCC[C@H]1C(=O)N[C@@H](CCCNC(=N)N)C(=O)N[C@H](C(=O)N[C@@H](CCC(=O)O)C(=O)N[C@H](C(=O)NCC(=O)N[C@@H](CO)C(=O)NCC(=O)N[C@@H](CO)C(=O)N[C@@H](Cc1ccc(O)cc1)C(N)=O)[C@@H](C)O)[C@@H](C)O)[C@@H](C)O ({C20 diacid-γGlu}-ASELSTATLGRLSAELHELSTYPRTETGSGSY-NH2) | 46 | 68 |
